Assays:
cocklebur = test: Test B pre/postemergence cocklebur; format: in vivo, Xanthium strumarium
How it was run: (§1)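 Herbicidal effect was estimated by eye on a ten-point control scale after plants spent twelve to sixteen days in a greenhouse following soil or foliar treatment. Foliar sprays targeted plants at one to four leaves; all doses were formulated in a non-phytotoxic solvent with surfactant.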

corn = test: Test B pre/postemergence corn; format: in vivo, Zea mays
How it was run: as §1

crabgrass = test: Test B pre/postemergence crabgrass; format: in vivo, Digitaria sanguinalis
How it was run: as §1

giant foxtail = test: Test B pre/postemergence giant foxtail; format: in vivo, Setaria faberii
How it was run: as §1

morningglory = test: Test B pre/postemergence morningglory; format: in vivo, Ipomoea hederacea
How it was run: as §1

pigweed = test: Test B pre/postemergence pigweed; format: in vivo, Amaranthus retroflexus
How it was run: as §1

rape = test: Test B pre/postemergence rape; format: in vivo, Brassica napus
How it was run: as §1

soybean = test: Test B pre/postemergence soybean; format: in vivo, Glycine max
How it was run: as §1

sugar beet = test: Test B pre/postemergence sugar beet; format: in vivo, Beta vulgaris; conditions: for Plant response rating, Sugarbeets: Rate 250 g/ha
How it was run: as §1

velvetleaf = test: Test B pre/postemergence velvetleaf; format: in vivo, Abutilon theophrasti; conditions: for Plant response rating, Velvetleaf: Rate 250 g/ha
How it was run: as §1

wheat = test: Test B pre/postemergence wheat; format: in vivo, Triticum aestivum; conditions: for Plant response rating, Wheat: Rate 250 g/ha
How it was run: as §1

wild oat = test: Test B pre/postemergence wild oat; format: in vivo, Avena fatua; conditions: for Plant response rating, Wild oats: Rate 250 g/ha
How it was run: as §1

purple nutsedge = test: Test B pre/postemergence purple nutsedge; format: in vivo, Cyperus rotundus
How it was run: as §1

rice = test: Test B flood test rice; format: in vivo, Oryza sativa
How it was run: (§2)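 Read-out is a visual response score from 0 (no effect) to 10 (complete control), assigned by comparison with untreated controls. Treatment was applied at the 2-leaf stage, and plants stayed in the greenhouse for twelve to sixteen days before scoring.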

duck salad = test: Test B flood test duck salad; format: in vivo, Heteranthera limosa
How it was run: as §2

bamyardgrass = test: Test B flood test barnyardgrass; format: in vivo, Echinochloa crus-galli
How it was run: as §2

[1] = Postemergence, Rate 62 g/ha, scale 0 to 10, 0 is no effect, 10 is complete control
[2] = Postemergence, Rate 125 g/ha, scale of 0 to 10 where 0 is no effect and 10 is complete control
[3] = Postemergence, Rate 250 g/ha, scale 0 to 10, 0 no effect, 10 complete control
[4] = Preemergence, Rate 62 g/ha, scale 0 to 10 (0 no effect, 10 complete control)
[5] = Preemergence, Rate 125 g/ha, scale 0 to 10 (0 no effect, 10 complete control)
[6] = Preemergence, Rate 250 g/ha, scale of 0 to 10 where 0 is no effect and 10 is complete control
[7] = Preemergence, Rate 500 g/ha, scale 0 (no effect) to 10 (complete control)
[8] = Rate 500 g/ha, Postemergence, scale 0 to 10, 0 no effect, 10 complete control
[9] = Rate 250 g/ha, Postemergence, scale 0 to 10, 0 is no effect, 10 is complete control
[10] = Preemergence, Rate 125 g/ha, 0 is no effect, 10 is complete control
[11] = Preemergence, scale of 0 to 10 where 0 is no effect and 10 is complete control
[12] = Postemergence, scale 0 to 10, 0 is no effect, 10 is complete control
[13] = Postemergence (flood test species), Rate 125 g/ha, scale of 0 to 10 where 0 is no effect and 10 is complete control
[14] = Rate 500 g/ha, listed under Postemergence (flood test species), scale 0 to 10, 0 no effect, 10 complete control
[15] = flood test, listed under Postemergence, Rate 250 g/ha, scale 0 to 10, 0 no effect, 10 complete control

Compound: Cc1nn(C)c(Cl)c1-n1c(=O)on(C(=O)N(c2ccc(F)cc2)C(C)C)c1=O [Compound 95]
- Cocklebur plant response rating (cocklebur; [1]): 0
- Cocklebur plant response rating (cocklebur; [2]): 0
- Cocklebur plant response rating (cocklebur; [3]): 1
- Cocklebur plant response rating (cocklebur; [4]): 0
- Plant response rating, Cocklebur (cocklebur; [5]): 0
- Plant response rating, Cocklebur (cocklebur; [6]): 0
- Cocklebur plant response rating (cocklebur; [7]): 0
- Cocklebur plant response rating (cocklebur; [8]): 2
- Corn plant response rating (corn; [1]): 0
- Corn plant response rating (corn; [2]): 0
- Corn plant response rating (corn; [3]): 0
- Corn plant response rating (corn; [4]): 0
- Plant response rating, Corn (corn; [5]): 0
- Plant response rating, Corn (corn; [6]): 0
- Corn plant response rating (corn; [7]): 0
- Corn plant response rating (corn; [8]): 0
- Crabgrass plant response rating (crabgrass; [1]): 0
- Crabgrass plant response rating (crabgrass; [2]): 0
- Crabgrass plant response rating (crabgrass; [3]): 6
- Crabgrass plant response rating (crabgrass; [4]): 2
- Plant response rating, Crabgrass (crabgrass; [5]): 6
- Plant response rating, Crabgrass (crabgrass; [6]): 8
- Crabgrass plant response rating (crabgrass; [7]): 8
- Crabgrass plant response rating (crabgrass; [8]): 8
- Giant foxtail plant response rating (giant foxtail; [1]): 0
- Giant foxtail plant response rating (giant foxtail; [2]): 0
- Giant foxtail plant response rating (giant foxtail; [3]): 1
- Giant foxtail plant response rating (giant foxtail; [4]): 2
- Plant response rating, Giant foxtail (giant foxtail; [5]): 4
- Plant response rating, Giant foxtail (giant foxtail; [6]): 7
- Giant foxtail plant response rating (giant foxtail; [7]): 8
- Giant foxtail plant response rating (giant foxtail; [8]): 6
- Morningglory plant response rating (morningglory; [1]): 1
- Morningglory plant response rating (morningglory; [2]): 1
- Morningglory plant response rating (morningglory; [3]): 2
- Morningglory plant response rating (morningglory; [4]): 0
- Plant response rating, Morningglory (morningglory; [5]): 0
- Plant response rating, Morningglory (morningglory; [6]): 0
- Morningglory plant response rating (morningglory; [7]): 0
- Morningglory plant response rating (morningglory; [8]): 8
- Redroot pigweed plant response rating (pigweed; [1]): 2
- Redroot pigweed plant response rating (pigweed; [2]): 3
- Redroot pigweed plant response rating (pigweed; [4]): 5
- Plant response rating, Redroot pigweed (pigweed; [5]): 6
- Plant response rating, Redroot pigweed (pigweed; [6]): 9
- Redroot pigweed plant response rating (pigweed; [7]): 9
- Plant response rating, Redroot pigweed (pigweed; [9]): 3
- Redroot pigweed plant response rating (pigweed; [8]): 5
- Rape plant response rating (rape; [1]): 0
- Rape plant response rating (rape; [2]): 0
- Rape plant response rating (rape; [3]): 0
- Rape plant response rating (rape; [4]): 0
- Plant response rating, Rape (rape; [5]): 0
- Plant response rating, Rape (rape; [6]): 3
- Rape plant response rating (rape; [7]): 3
- Rape plant response rating (rape; [8]): 0
- Soybean plant response rating (soybean; [1]): 1
- Soybean plant response rating (soybean; [2]): 1
- Soybean plant response rating (soybean; [4]): 0
- Plant response rating, Soybean (soybean; [5]): 0
- Plant response rating, Soybean (soybean; [6]): 0
- Soybean plant response rating (soybean; [7]): 0
- Plant response rating, Soybean (soybean; [9]): 1
- Soybean plant response rating (soybean; [8]): 1
- Sugarbeets plant response rating (sugar beet; [1]): 2
- Sugarbeets plant response rating (sugar beet; [2]): 2
- Sugarbeets plant response rating (sugar beet; [4]): 0
- Sugarbeets plant response rating (0 to 10 scale) (sugar beet; [10]): 1
- Plant response rating, Sugarbeets (sugar beet; [11]): 2
- Sugarbeets plant response rating (sugar beet; [7]): 3
- Plant response rating, Sugarbeets (sugar beet; [12]): 4
- Sugarbeets plant response rating (sugar beet; [8]): 4
- Velvetleaf plant response rating (velvetleaf; [1]): 0
- Velvetleaf plant response rating (velvetleaf; [2]): 0
- Velvetleaf plant response rating (velvetleaf; [4]): 0
- Velvetleaf plant response rating (0 to 10 scale) (velvetleaf; [10]): 0
- Plant response rating, Velvetleaf (velvetleaf; [11]): 0
- Velvetleaf plant response rating (velvetleaf; [7]): 0
- Plant response rating, Velvetleaf (velvetleaf; [12]): 0
- Velvetleaf plant response rating (velvetleaf; [8]): 0
- Wheat plant response rating (wheat; [1]): 0
- Wheat plant response rating (wheat; [2]): 0
- Wheat plant response rating (wheat; [4]): 0
- Wheat plant response rating (0 to 10 scale) (wheat; [10]): 0
- Plant response rating, Wheat (wheat; [11]): 0
- Wheat plant response rating (wheat; [7]): 0
- Plant response rating, Wheat (wheat; [12]): 0
- Wheat plant response rating (wheat; [8]): 0
- Wild oats plant response rating (wild oat; [1]): 0
- Wild oats plant response rating (wild oat; [2]): 0
- Wild oats plant response rating (wild oat; [4]): 0
- Wild oats plant response rating (0 to 10 scale) (wild oat; [10]): 0
- Plant response rating, Wild oats (wild oat; [11]): 2
- Wild oats plant response rating (wild oat; [7]): 5
- Plant response rating, Wild oats (wild oat; [12]): 0
- Wild oats plant response rating (wild oat; [8]): 3
- Nutsedge plant response rating (purple nutsedge; [1]): 0
- Nutsedge plant response rating (purple nutsedge; [2]): 0
- Nutsedge plant response rating (purple nutsedge; [3]): 0
- Nutsedge plant response rating (purple nutsedge; [4]): 0
- Plant response rating, Nutsedge (purple nutsedge; [5]): 0
- Plant response rating, Nutsedge (purple nutsedge; [6]): 0
- Nutsedge plant response rating (purple nutsedge; [7]): 0
- Nutsedge plant response rating (purple nutsedge; [8]): 0
- Rice plant response rating (rice; [13]): 0
- Rice plant response rating (rice; [1]): 0
- Plant response rating, Rice (rice; Rate 250 g/ha, Postemergence (flood test), scale 0 to 10, 0 is no effect, 10 is complete control): 2
- Rice plant response rating (rice; [14]): 4
- Ducksalad plant response rating (duck salad; [13]): 0
- Ducksalad plant response rating (duck salad; [1]): 0
- Ducksalad plant response rating (duck salad; [14]): 0
- Ducksalad plant response rating (duck salad; [15]): 0
- Barnyardgrass plant response rating (bamyardgrass; [1]): 0
- Barnyardgrass plant response rating (bamyardgrass; Rate 125 g/ha, Postemergence section (flood test species), scale 0 to 10, 0 no effect, 10 complete control): 0
- Barnyardgrass plant response rating (bamyardgrass; [14]): 4
- Barnyardgrass plant response rating (bamyardgrass; [15]): 0
